Measurements: patent US20210330611A1, “THERAPY FOR NEUROLOGICAL DISEASES/DISORDERS” (priority 2020, published 2021)
Read-outs that look alike come from different tables or passages of the source.

Assays:
[1] = test system: fibrin-induced microglia activation; assay: Image-based assay of fibrin-induced microglia activation (HTS and dose response); assay type: cell-based, rat; conditions: for inhibition at 10 µM: Rattus norvegicus, Microglia, read-out: Fibrin % inhibition
[2] = test system: LPS-induced microglia activation; assay: Image-based assay of LPS-induced microglia activation (HTS and dose response); assay type: cell-based, rat
[3] = test system: fibrin- and LPS-induced microglia activation; assay: cells; assay type: cell-based, rat
primary rat microglia [4] = test system: primary rat microglia;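 as to Fibrin % cell toxicity: share of dead cells sized under 150 µm2 at 10 µM in fibrin-stimulated microglia HTS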
primary rat microglia [5] = test system: primary rat microglia; remark: listed apart in the source;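 as to Fibrin % cell toxicity: share of dead cells sized under 150 µm2 at 10 µM in fibrin-stimulated microglia HTS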
[6] = Rattus norvegicus, Microglia, read-out: LPS % inhibition
[7] = primary microglia HTS, fibrin stimulation, cell size >800 μm2 as marker of activation
[8] = Rattus norvegicus, Microglia, 48 h; read-out: LPS % inhibition
[9] = classification by fibrin and LPS inhibition in HTS
[10] = primary microglia HTS, fibrin stimulation, compounds at 10 μM
[11] = Rattus norvegicus, Microglia, primary microglia HTS, LPS stimulation, compounds at 10 μM; read-out: LPS % inhibition
[12] = quadrant by fibrin and LPS inhibition, HTS at 10 μM
[13] = primary microglia HTS, fibrin stimulation, activation = cell size >800 μm2
[14] = Rattus norvegicus, Microglia, 48 h, primary microglia HTS, LPS stimulation, activation = cell size >800 μm2; read-out: LPS % inhibition
[15] = classification by fibrin and LPS inhibition, HTS at 10 μM
[16] = quadrant by fibrin and LPS inhibition in HTS of 1907 compounds

CN1C(C(=O)Nc2ccccn2)=C(O)c2sccc2S1(=O)=O [Tenoxicam]
inhibition at 10 µM [1]: 11%
inhibition at 10 µM [2, 6]: 15%
Quadrant (FIG. 5b) [3]: Q4
Fibrin % cell toxicity (primary rat microglia [4]; rat): 1%
LPS % cell toxicity (primary rat microglia [5]; rat): 0%

CC(COc1ccccc1)N(CCCl)Cc1ccccc1 (stereo not shown) [Phenoxybenzamine]
inhibition at 10 µM [1, 7]: 8%
inhibition at 10 µM [2, 8]: -5%
Quadrant (FIG. 5b) [3, 9]: Q4
Fibrin % cell toxicity (primary rat microglia [4]; rat): 1%
LPS % cell toxicity (primary rat microglia [5]; rat): 0%

OCCc1ccccc1 [2-Phenyl-Ethanol]
inhibition at 10 µM [1, 10]: -6%
inhibition at 10 µM [2, 11]: 15%
Quadrant (FIG. 5b) [3, 12]: Q4
Fibrin % cell toxicity (primary rat microglia [4]; rat): 1%
LPS % cell toxicity (primary rat microglia [5]; rat): 0%

CCCCC1C(=O)N(c2ccccc2)N(c2ccccc2)C1=O [Phenylbutazone]
inhibition at 10 µM [1, 7]: -23%
inhibition at 10 µM [2, 8]: 5%
Quadrant (FIG. 5b) [3, 9]: Q4
Fibrin % cell toxicity (primary rat microglia [4]; rat): 0%
LPS % cell toxicity (primary rat microglia [5]; rat): 0%

CC1=C(C/C=C(\C)CCC[C@H](C)CCC[C@H](C)CCCC(C)C)C(=O)c2ccccc2C1=O [Phylloquinone]
Fibrin % inhibition [1, 7]: 4%
LPS % inhibition [2]: 31%
Quadrant (FIG. 5b) [3, 9]: Q4
Fibrin % cell toxicity (primary rat microglia [4]): 0%
LPS % cell toxicity (primary rat microglia [5]): 2%

CC(=O)NC[C@H]1CN(c2ccc(N3CCOCC3)c(F)c2)C(=O)O1 [Linezolid]
inhibition at 10 µM [1]: -18%
inhibition at 10 µM ([2]; Rattus norvegicus, Microglia, 48 h, read-out: LPS % inhibition): 19%
Quadrant (FIG. 5b) [3]: Q4
Fibrin % cell toxicity (primary rat microglia [4]; rat): 1%
LPS % cell toxicity (primary rat microglia [5]; rat): 0%

CC(C)(C)NC(=O)[C@@H]1CN(Cc2cccnc2)CCN1C[C@@H](O)C[C@@H](Cc1ccccc1)C(=O)N[C@H]1c2ccccc2C[C@H]1O [Indinavir]
inhibition at 10 µM [1, 13]: -22%
inhibition at 10 µM [2, 14]: 5%
Quadrant (FIG. 5b) [3]: Q4
Fibrin % cell toxicity (primary rat microglia [4]; rat): 1%
LPS % cell toxicity (primary rat microglia [5]; rat): 0%

CC1=C(CC(=O)O)c2cc(F)ccc2/C1=C\c1ccc([S+](C)[O-])cc1 (stereo not shown) [Sulindac]
inhibition at 10 µM ([1]; primary microglia HTS, 10 μM, fibrin-stimulated, cell size >800 μm^2 as marker of activation): 21%
inhibition at 10 µM ([2]; Rattus norvegicus, Microglia, primary microglia HTS, 10 μM, LPS-stimulated, cell size >800 μm^2 as marker of activation; read-out: LPS % inhibition): 6%
Quadrant (FIG. 5b) ([3]; HTS of 1907 compounds, quadrant by fibrin and LPS inhibition): Q4
Fibrin % cell toxicity (primary rat microglia [4]; rat): 1%
LPS % cell toxicity (primary rat microglia [5]; rat): 0%

CCOC(=O)OC(C)OC1=C(C(=O)Nc2ccccn2)N(C)S(=O)(=O)c2ccccc21 (stereo not shown) [Ampiroxicam]
inhibition at 10 µM [1, 10]: -9%
inhibition at 10 µM [2, 11]: 14%
Quadrant (FIG. 5b) [3, 12]: Q4
Fibrin % cell toxicity (primary rat microglia [4]; rat): 1%
LPS % cell toxicity (primary rat microglia [5]; rat): 0%

O.OC[C@@H](O)[C@@H](O[C@@H]1O[C@H](CO)[C@H](O)[C@H](O)[C@H]1O)[C@H](O)[C@@H](O)CO [D-lactitol Monohydrate]
Fibrin % inhibition [1, 10]: 11%
LPS % inhibition ([2]; primary microglia HTS, LPS stimulation, compounds at 10 μM): 16%
Quadrant (FIG. 5b) [3, 15]: Q4
Fibrin % cell toxicity (primary rat microglia [4]): 1%
LPS % cell toxicity (primary rat microglia [5]): 0%

CC(C)C[C@H](NC(=O)[C@H](Cc1ccccc1)NC(=O)c1cnccn1)B(O)O [Bortezomib]
inhibition at 10 µM ([1]; primary microglia HTS, fibrin stimulation, increased cell size (>800 μm^2) as marker of activation): 106%
inhibition at 10 µM ([2]; Rattus norvegicus, Microglia, 48 h, primary microglia HTS, LPS stimulation; increased cell size (>800 μm^2) as marker of activation; read-out: LPS % inhibition): 106%
Quadrant (FIG. 5b) [3, 16]: Q2
Fibrin % cell toxicity (primary rat microglia [4]; rat): 86%
LPS % cell toxicity (primary rat microglia [5]; rat): 56%

CC1CC(OC(=O)c2ccccc2O)CC(C)(C)C1 (stereo not shown) [Homosalate]
inhibition at 10 µM [1, 13]: -3%
inhibition at 10 µM [2, 14]: 18%
Quadrant (FIG. 5b) [3, 16]: Q4
Fibrin % cell toxicity (primary rat microglia [4]; rat): 1%
LPS % cell toxicity (primary rat microglia [5]; rat): 1%

CN(C)CC[C@@H](c1ccc(Cl)cc1)c1ccccn1 [Dexchlorpheniramine]
inhibition at 10 µM [1, 10]: -8%
inhibition at 10 µM [2, 11]: 11%
Quadrant (FIG. 5b) [3]: Q4
Fibrin % cell toxicity (primary rat microglia [4]; rat): 1%
LPS % cell toxicity (primary rat microglia [5]; rat): 0%

Nc1cc(C(Cl)=C(Cl)Cl)c(S(N)(=O)=O)cc1S(N)(=O)=O [Clorsulon]
inhibition at 10 µM [1]: 0%
inhibition at 10 µM [2, 6]: 17%
Quadrant (FIG. 5b) [3]: Q4
Fibrin % cell toxicity (primary rat microglia [4]; rat): 0%
LPS % cell toxicity (primary rat microglia [5]; rat): 0%

Oc1ncnc2[nH]ncc12 [Allopurinol]
inhibition at 10 µM [1, 10]: -17%
inhibition at 10 µM [2, 11]: 16%
Quadrant (FIG. 5b) [3, 12]: Q4
Fibrin % cell toxicity (primary rat microglia [4]; rat): 1%
LPS % cell toxicity (primary rat microglia [5]; rat): 0%

CN(C)CC(c1ccc(O)cc1)C1(O)CCCCC1 (stereo not shown) [Desvenlafaxine]
inhibition at 10 µM [1, 10]: 13%
inhibition at 10 µM [2, 11]: 3%
Quadrant (FIG. 5b) [3, 15]: Q4
Fibrin % cell toxicity (primary rat microglia [4]; rat): 1%
LPS % cell toxicity (primary rat microglia [5]; rat): 1%

NC(=O)c1ccccc1O [Salicylamide]
inhibition at 10 µM [1, 7]: -20%
inhibition at 10 µM [2, 8]: 16%
Quadrant (FIG. 5b) [3, 9]: Q4
Fibrin % cell toxicity (primary rat microglia [4]; rat): 1%
LPS % cell toxicity (primary rat microglia [5]; rat): 1%
